According to patent publication US20220304936A1, “DRUG-POLYMER AMORPHOUS SOLID DISPERSIONS USING LINEAR POLY(ACRYLIC ACID) POLYMERS” (LUBRIZOL ADVANCED MATERIALS, INC., priority 2019, published 2022):
Values after ≈ are worked out from the molar mass of the structure shown.

Assays:
[1] = Solubility limit of drug in equilibrated dissolution media; assay type: physicochemical; conditions: equilibrated dissolution media (0.1 N HCl), simulated gastric fluid; 750 mL 0.1 N HCl, 37° C.
[2] = cited from earlier work
[3] = model APIs; cited from earlier work
[4] = Physical form and Tg of formulations by XRPD and/or DSC; assay type: physicochemical; conditions: as prepared
Procedure: The physical form of the product is identified visually (e.g., solid powder) and by XRPD and/or DSC (to assess amorphous or crystalline state). Tg values are estimates from DSC curves.
X-ray Powder Diffraction (XRPD) is performed with a Panalytical X'Pert^3 Powder XRPD. FIGS. 8-10 show XRPD plots for various formulations made using ITZ and PAA-8. In FIG. 8, plots for ITZ alone (Neat IZT, Formulation F25), a physical mixture of 15% ITZ and 85% PAA (PM 15%, Formulation F26), and a spray-dried solid dispersion of 15% ITZ and 85% PAA (ASD 15%, Formulation F2), are shown. In FIG. 9, plots for ITZ alone (Neat IZT, Formulation F25), a physical mixture of 30% ITZ and 70% PAA (PM 30%, Formulation F27), and a spray-dried solid dispersion of 30% ITZ and 70% PAA (ASD 30%, Formulation F3), are shown. In FIG. 10, plots for ITZ alone (Neat IZT, Formulation F25), a physical mixture of 50% ITZ and 50% PAA (PM 50%, Formulation F28), and a spray-dried solid dispersion of 50% ITZ and 50% PAA (ASD 50%, Formulation F5), are shown.
XRPD is performed with Si zero background holders. The 2-theta position is performed with a Panalytical Si reference standard disc. The XRPD instrument configuration is Bragg-Brentano geometry.
Differential Scanning calorimetry (DSC) is performed with a Mettler-Toldeo DSC-1 instrument (no modulated DSC software) using a sample amount of 5-10 mg. […]

| solubility [1] [µg/mL] | Form [4] | SMILES | Aqueous solubility [2] [µg/mL] | solubility in water ([2]; water) [µg/mL] | Glass transition temperature, Tg (° C.) [3] [°C] |
| --- | --- | --- | --- | --- | --- |
| 4 to 6 (≈ 5.67 to 8.5 µM) |  | CCC(C)n1ncn(-c2ccc(N3CCN(c4ccc(OCC5COC(Cn6cncn6)(c6ccc(Cl)cc6Cl)O5)cc4)CC3)cc2)c1=O [Itraconazole, 1-(butan-2-yl)-4-{4-[4-(4-{[(2R, 4S)-2-(2,4-dichlorophenyl)-2-(1H-1,2,4-triazol-1-ylmethyl)-1,3-dioxolan-4-yl]methoxylphenyl)piperazin-1-yl]phenyl}-4,5-dihydro-1H-1,2,4-triazol-5-one] | 0.001 to 0.004 | 0.001 to 0.004 |  |
|  | Crystalline | CC(C)c1nc(CN(C)C(=O)N[C@H](C(=O)N[C@@H](Cc2ccccc2)C[C@H](O)[C@H](Cc2ccccc2)NC(=O)OCc2cncs2)C(C)C)cs1 [Ritonavir, 5-thiazolylmethyl ((alphaS)-alpha-((1S,3S)-1-hydroxy-3-((2S)-2-(3-((2-isopropyl-4-thiazolyl)methyl)-3-methylureido)-3-methylbutyramido)-4-phenylbutyl)phenethyl)carbamate] |  |  | 45 |
